In paper PMC12736255, “Reinvestigating Pyrrol-2-One-Based Compounds: From Antimicrobial Agents to Promising Antitumor Candidates” (Pharmaceuticals, 2025):

Assays:
LN-229 = assay: CellTiter-Glo 2.0 cytotoxicity, glioblastoma; assay type: cell-based, human; settings: LN-229, 24 h
Procedure: (§1) Cytotoxicity of compounds was assessed using the CellTiter-Glo® 2.0 Assay (Promega, Madison, WI, USA) on human gingival fibroblasts (HGF), osteosarcoma (HOS and MG-63) and glioblastoma (LN-229 and U-118MG) cells, according to the manufacturer’s instructions. HGF, HOS, MG-63 and U-118MG cells were purchased from Cytion GmbH, Eppelheim, Germany, and LN-229 (CRL-2611) from the American Type Culture Collection (ATCC), Manassas, VA, USA. Cells were seeded (50,000 cells/mL—HGF, 100,000 cells/mL—tumor cells) into 96-well opaque white tissue culture-treated plates and allowed to adhere overnight in αMEM medium with 10% fetal bovine serum and 1% antibiotic-antimycotic (all from PAN—Biotech GmbH, Aidenbach, Germany). Cells were incubated with compounds (10 or 50 µM) for 24 h, then CellTiter-Glo® reagent was added and luminescence was recorded using a FLUOstar® Omega microplate reader (BMG LABTECH, Ortenberg, Germany). The experiments were carried out in triplicate, and the viability of treated cells was expressed as a percentage of the viability of control cells (untreated). Data were represented as means ± standard deviations. Stock solutions of compounds were prepared in DMSO, then diluted in complete cell culture media. […] Data were analyzed with independent two-tailed (Student’s) t-test, considering p < 0.05 statistically significant.

U-118MG = assay: CellTiter-Glo 2.0 cytotoxicity, glioblastoma; assay type: cell-based, human; settings: 50 µM, 24 h
Procedure: as §1

HL-60(TB) = assay: NCI-60 5-dose screen; assay type: cell-based, human
SR = assay: NCI-60 5-dose screen; assay type: cell-based, human
CCRF-CEM = assay: NCI-60 5-dose screen; assay type: cell-based; settings: Homo sapiens
MOLT-4 = assay: NCI-60 5-dose screen; assay type: cell-based, human
RPMI-8226 = assay: NCI-60 5-dose screen; assay type: cell-based, human
HOP-92 = assay: NCI-60 5-dose screen; assay type: cell-based, human
A549/ATCC = assay: NCI-60 5-dose screen; assay type: cell-based, human
KM12 = assay: NCI-60 5-dose screen; assay type: cell-based, human
HCT-116 = assay: NCI-60 5-dose screen; assay type: cell-based, human
COLO 205 = assay: NCI-60 5-dose screen; assay type: cell-based, human
SF-268 = assay: NCI-60 5-dose screen; assay type: cell-based, human
U251 = assay: NCI-60 5-dose screen; assay type: cell-based, human
MALME-3M = assay: NCI-60 5-dose screen; assay type: cell-based, human
LOX IMVI = assay: NCI-60 5-dose screen; assay type: cell-based, human
OVCAR-3 = assay: NCI-60 5-dose screen; assay type: cell-based, human
OVCAR-4 = assay: NCI-60 5-dose screen; assay type: cell-based, human
IGROV1 = assay: NCI-60 5-dose screen; assay type: cell-based, human
A498 = assay: NCI-60 5-dose screen; assay type: cell-based, human
ACHN = assay: NCI-60 5-dose screen; assay type: cell-based, human
RXF 393 = assay: NCI-60 5-dose screen; assay type: cell-based, human
HS 578T = assay: NCI-60 5-dose screen; assay type: cell-based, human
MDA-MB-468 = assay: NCI-60 5-dose screen; assay type: cell-based, human
fungal strains = test system: fungal strains; design: method as in PMID 38398524; settings: cited from earlier work
[1] = CellTiter-Glo 2.0 cytotoxicity, normal fibroblasts; assay type: cell-based, human; settings: human, human gingival fibroblasts (HGF), read-out: cell viability
Procedure: as §1

[2] = test system: osteosarcoma (HOS and MG-63) cells; assay: CellTiter-Glo 2.0 cytotoxicity, osteosarcoma; assay type: cell-based, human; settings: osteosarcoma cell lines, 10 and 50 µM, 24 h
Procedure: as §1

[3] = Homo sapiens, read-out: LC50 (the source's name)

In the case of N#Cc1ccc(C2C=C(Nc3ccc(I)cc3)C(=O)N2c2ccc(I)cc2)cc1 (centres unmarked) [3l], the “cytotoxicity (activity in words)” value (LN-229) is reported as “ineffective”, the “cytotoxicity (activity in words)” value (U-118MG) is reported as “moderate activity” and the TGI (HL-60(TB)) is reported as over 100 µM. It also gave a GI50 (HL-60(TB); Homo sapiens) of over 100 µM, a CC50 (HL-60(TB); [3]) of over 100 µM and a TGI (SR) of over 100 µM. The GI50 (SR; Homo sapiens) was 6.28 µM, the CC50 (SR; [3]) was over 100 µM and the GI50 (CCRF-CEM) was 3.26 µM. It also gave a CC50 (CCRF-CEM; read-out: LC50 (the source's name)) of over 100 µM, a TGI (MOLT-4) of over 100 µM and a GI50 (MOLT-4; Homo sapiens) of 2.11 µM. For the same compound, the CC50 (MOLT-4; [3]) was over 100 µM, the TGI (RPMI-8226) was over 100 µM and the GI50 (RPMI-8226; Homo sapiens) was 3.07 µM. For the same compound, the CC50 (RPMI-8226; [3]) was over 100 µM, the TGI (HOP-92) was 4.89 µM and the GI50 (HOP-92; Homo sapiens) was 1.46 µM. It also gave a CC50 (HOP-92; [3]) of over 100 µM, a TGI (A549/ATCC) of over 100 µM and a GI50 (A549/ATCC; Homo sapiens) of 8.08 µM. For the same compound, the CC50 (A549/ATCC; [3]) was over 100 µM, the TGI (KM12) was over 100 µM and the GI50 (KM12; Homo sapiens) was 9.7 µM. It also gave a CC50 (KM12; [3]) of over 100 µM, a TGI (HCT-116) of over 100 µM and a GI50 (HCT-116; Homo sapiens) of 3.83 µM. For the same compound, the CC50 (HCT-116; [3]) was over 100 µM, the TGI (COLO 205) was over 100 µM and the GI50 (COLO 205; Homo sapiens) was 5.29 µM. For the same compound, the CC50 (COLO 205; [3]) was over 100 µM, the TGI (SF-268) was over 100 µM and the GI50 (SF-268; Homo sapiens) was 4.69 µM. It also gave a CC50 (SF-268; [3]) of over 100 µM, a TGI (U251) of over 100 µM and a GI50 (U251; Homo sapiens, U-251) of 4.17 µM. It also gave an LC50 (50% lethal concentration) (U251; Homo sapiens, U-251) of over 100 µM, a GI50 (MALME-3M; Homo sapiens, Malme-3M) of 2.07 µM and a CC50 (MALME-3M; Homo sapiens, Malme-3M, read-out: LC50 (the source's name)) of over 100 µM. The TGI (MALME-3M; MALME-3M) was over 100 µM, the TGI (LOX IMVI) was over 100 µM and the GI50 (LOX IMVI; Homo sapiens) was 3.38 µM. It also gave a CC50 (LOX IMVI; [3]) of over 100 µM, a TGI (OVCAR-3) of over 100 µM and a GI50 (OVCAR-3; Homo sapiens) of 4.72 µM. It also gave a CC50 (OVCAR-3; [3]) of over 100 µM, a TGI (OVCAR-4) of 1.69 µM and a GI50 (OVCAR-4; Homo sapiens) of 0.422 µM. It also gave a CC50 (OVCAR-4; [3]) of 4.82 µM, a TGI (IGROV1) of over 100 µM and a GI50 (IGROV1; Homo sapiens, IGROV-1) of 8.67 µM. For the same compound, the CC50 (IGROV1; Homo sapiens, IGROV-1, read-out: LC50 (the source's name)) was over 100 µM, the TGI (A498) was over 100 µM and the GI50 (A498; Homo sapiens) was 2.99 µM. The CC50 (A498; [3]) was over 100 µM, the TGI (ACHN) was over 100 µM and the GI50 (ACHN; Homo sapiens) was 5.36 µM. It also gave a CC50 (ACHN; [3]) of over 100 µM, a TGI (RXF 393) of over 100 µM and a GI50 (RXF 393; Homo sapiens) of 3.72 µM. The CC50 (RXF 393; [3]) was over 100 µM, the TGI (HS 578T) was 5.64 µM and the GI50 (HS 578T; Homo sapiens) was 2.1 µM. For the same compound, the CC50 (HS 578T; [3]) was over 100 µM, the TGI (MDA-MB-468) was over 100 µM and the GI50 (MDA-MB-468; Homo sapiens) was 2.7 µM. The CC50 (MDA-MB-468; [3]) was over 100 µM and the “antifungal activity (in words)” value (fungal strains) was “most effective against fungal strains”.

With COc1cc(OC)c(C2C=C(Nc3ccc(I)cc3)C(=O)N2c2ccc(I)cc2)cc1OC (centres unmarked) [3k] the viability at 24 h, 50 µM [1] was 64%, the “cytotoxicity (activity in words)” value (LN-229) was “ineffective” and the “cytotoxicity (activity in words)” value (U-118MG) was “moderate activity”.

With O=C1C(Nc2ccc(I)cc2)=CC(c2ccc(O)cc2)N1c1ccc(I)cc1 (centres unmarked) [3g] the “cytotoxicity (activity in words)” value (LN-229) was “ineffective”, the “cytotoxicity (activity in words)” value (U-118MG) was “moderate activity” and the “cytotoxicity (activity in words)” value [2] was “notable activity”.
